The values that follow come from ChEMBL document CHEMBL3853341, “Nuclear magnetic resonance studies reveal stabilization of parallel G-quadruplex DNA [d(T2G4T)]4 upon binding to protoberberine alkaloid coralyne” (Bioorg Med Chem Lett, 2016).

A short description of assay [1]: Binding affinity to [d(T2G4T)]4 G-quadruplex DNA (unknown origin) assessed as upfield shift in compound 16OCH3 signal at ligand:DNA molar ratio of 2 by 1D 1H NMR method.
A short description of assay [2]: Binding affinity to [d(T2G4T)]4 G-quadruplex DNA (unknown origin) assessed as broadening of G4NH signal by measuring upfield shift at ligand:DNA molar ratio of 2 by 1D 1H NMR method.
Assay [3] is described as follows: Binding affinity to [d(T2G4T)]4 G-quadruplex DNA (unknown origin) assessed as upfield shift in G4pG5 signal at ligand:DNA molar ratio of 0.25:1 to 2:1 by 1D 31P NMR method.
A short description of assay [4]: Binding affinity to [d(T2G4T)]4 G-quadruplex DNA (unknown origin) assessed as broadening of T7H6 signal by measuring downfield shift at ligand:DNA molar ratio of 2 by 1D 1H NMR method.
Assay [5] can be described thus: Binding affinity to [d(T2G4T)]4 G-quadruplex DNA (unknown origin) assessed as broadening of T2CH3 signal by measuring downfield shift at ligand:DNA molar ratio of 2 by 1D 1H NMR method.
Assay [6] is described as follows: Binding affinity to [d(T2G4T)]4 G-quadruplex DNA (unknown origin) assessed as broadening of G6NH signal by measuring upfield shift at ligand:DNA molar ratio of 2 by 1D 1H NMR method.
Assay [7] can be described thus: Binding affinity to [d(T2G4T)]4 G-quadruplex DNA (unknown origin) assessed as formation of 3'-flanking guanine at ligand:DNA molar ratio of 2 by 2D 1H-1H NOESY NMR spectroscopy.
A short description of assay [8]: Binding affinity to [d(T2G4T)]4 G-quadruplex DNA (unknown origin) assessed as change in intensity of negative band at 242 nanometer by circular dichroism method.
A short description of assay [9]: Binding affinity to deoxy(T2G4T)]4 G-quadruplex DNA (unknown origin) assessed as G3NH/G6NH signal by measuring melting temperature by 1H NMR spectroscopy.
The nature of assay [10]: Binding affinity to [d(T2G4T)]4 G-quadruplex DNA (unknown origin) assessed as change in intensity of positive band at 264 nanometer by circular dichroism method.
Assay [11] is described as follows: Binding affinity to [d(T2G4T)]4 G-quadruplex DNA (unknown origin) assessed as downfield shift in T2pG3 signal at ligand:DNA molar ratio of 0.25:1 to 2:1 by 1D 31P NMR method.
Assay [12] in a line: Binding affinity to [d(T2G4T)]4 G-quadruplex DNA (unknown origin) assessed as upfield shift in compound 1OCH3 signal at ligand:DNA molar ratio of 2 by 1D 1H NMR method.
Assay [13] in a line: Binding affinity to [d(T2G4T)]4 G-quadruplex DNA (unknown origin) assessed as downfield shift in G6pT7 signal at ligand:DNA molar ratio of 0.25:1 to 2:1 by 1D 31P NMR method.
Assay [14] is described as follows: Binding affinity to [d(T2G4T)]4 G-quadruplex DNA (unknown origin) assessed as broadening of G5NH signal by measuring upfield shift at ligand:DNA molar ratio of 2 by 1D 1H NMR method.
Assay [15] in a line: Binding affinity to [d(T2G4T)]4 G-quadruplex DNA (unknown origin) assessed as broadening of T7CH3 signal by measuring downfield shift at ligand:DNA molar ratio of 2 by 1D 1H NMR method.
Assay [16] in a line: Binding affinity to [d(T2G4T)]4 G-quadruplex DNA (unknown origin) assessed as diffusion coefficient of G3H8 proton signal at ligand:DNA molar ratio of 2 by NMR DOSY method.
Assay [17] can be described thus: Binding affinity to [d(T2G4T)]4 G-quadruplex DNA (unknown origin) assessed as broadening of G3NH signal by measuring upfield shift at ligand:DNA molar ratio of 2 by 1D 1H NMR method.
A short description of assay [18]: Binding affinity to [d(T2G4T)]4 G-quadruplex DNA (unknown origin) assessed as upfield shift in compound 15OCH3 signal at ligand:DNA molar ratio of 2 by 1D 1H NMR method.
Assay [19] is described as follows: Binding affinity to [d(T2G4T)]4 G-quadruplex DNA (unknown origin) assessed as upfield shift in compound 5OCH3 signal at ligand:DNA molar ratio of 2 by 1D 1H NMR method.
Assay [20] can be described thus: Binding affinity to [d(T2G4T)]4 G-quadruplex DNA (unknown origin) assessed as diffusion coefficient of H1/H16 proton signal at ligand:DNA molar ratio of 2 by NMR DOSY method (reference value: 5.08 10^-10m2/sec).
A short description of assay [21]: Binding affinity to deoxy(T2G4T)]4 G-quadruplex DNA (unknown origin) assessed as formation of negative induced CD band at 25 uM by […].
A short description of assay [22]: Binding affinity to [d(T2G4T)]4 G-quadruplex DNA (unknown origin) assessed as upfield shift in G5pG6 signal at ligand:DNA molar ratio of 0.25:1 to 2:1 by 1D 31P NMR method.
The nature of assay [23]: Binding affinity to [d(T2AG3T)]4 G-quadruplex DNA (unknown origin) containing human telomeric repeat assessed as increase in melting temperature by NMR spectroscopic analysis.

Activity calls are given as the source filed them. The rule behind the calls is not given here.

A word on the ΔTm: it is the shift of the melting midpoint relative to a reference. Regarding `COc1cc2cc3c4cc(OC)c(OC)cc4cc[n+]3c(C)c2cc1OC`, the Activity in assay [1] is 0.61 ppm; in assay [2], 0.37 ppm; in assay [3], 0.12 ppm; in [4], 0.33 ppm; in [5], 0.17 ppm; in [6], 0.8 ppm. Further, the Activity worked out at 0.28 ppm in [11]; 0.49 ppm in assay [12]; 0.27 ppm in [13]; 0.38 ppm in assay [14]; 0.22 ppm in assay [15]; 0.54 ppm in [17]. The values for the Activity in [18], in assay [19] and in assay [22] were 0.46 ppm, 0.72 ppm and 0.12 ppm, respectively. Also, the outcome in assay [7], in assay [8], in assay [10] and in assay [21] was Active. Further, in assay [9], the ΔTm was greater than 20 °C. Moreover, the D in assay [16] was 3.26 ×10⁻¹⁰ m2/s; in assay [20] it was 3.31 ×10⁻¹⁰ m2/s.
With `O=c1c(O)c(-c2ccc(O)c(O)c2)oc2cc(O)cc(O)c12`, the ΔTm in assay [23] is 20 °C.
For `Cc1cc2c3c([n+](C)c4ccc(F)cc4c3c1)-c1cc(F)ccc1N2C`, the thermal shift (ΔTm) in [23] amounted to 20 °C.
